The structures appear in SMILES notation. The source made the active and inactive calls. No cut-off for these calls is given here.

Data set [1] is described as follows: Toxicity in C57BL/6 mouse model xenografted with […] cells assessed as obvious damage in kidney at 10 mg/kg, ip administered daily for 10 days by H and E staining based analysis. The conditions noted are these: in vivo, 240 h, time 10 day. Type of data set: organism-based. (In general: A xenograft is tissue or cells of one species grown in another, often human tumour cells in immunodeficient mice.)

Data set [2] concerns Lewis lung carcinoma cell line. The experiment in a line: Antitumor T-cell immune response in Lewis lung carcinoma cells xenografted in C57BL/6 mouse model assessed as increase in CD3+ CD8+ infiltration in CD45+ T cells in tumor at 10 mg/kg, ip administered daily for 10 days by flow cytometry. Format: functional, organism-based. The conditions noted are these: time 10.0 day. A general note: Flow cytometry measures light scatter and fluorescence of single cells or particles in a stream.

Data set [3] in a line: Toxicity in C57BL/6 mouse model xenografted with […] cells assessed as change in AST level at 10 mg/kg, ip administered daily for 10 days. Format: organism-based, Blood. The conditions noted are these: in vivo, 240 h, time 10 day.
Data set [4] deals with COP9 signalosome complex subunit 5 (Homo sapiens) (UniProt Q92905). Nature of the data set: Induction of PD-L1 degradation in human NCI-H460 cells at 10 uM by Western blot analysis. Format: cell-based. Particulars: time <= 36.0 hrs. (In general: In western blotting, separated proteins are transferred to a membrane and probed.)
Sequence of COP9 signalosome complex subunit 5 (Homo sapiens) (Q92905 2-334 limits assumed, one chain of several): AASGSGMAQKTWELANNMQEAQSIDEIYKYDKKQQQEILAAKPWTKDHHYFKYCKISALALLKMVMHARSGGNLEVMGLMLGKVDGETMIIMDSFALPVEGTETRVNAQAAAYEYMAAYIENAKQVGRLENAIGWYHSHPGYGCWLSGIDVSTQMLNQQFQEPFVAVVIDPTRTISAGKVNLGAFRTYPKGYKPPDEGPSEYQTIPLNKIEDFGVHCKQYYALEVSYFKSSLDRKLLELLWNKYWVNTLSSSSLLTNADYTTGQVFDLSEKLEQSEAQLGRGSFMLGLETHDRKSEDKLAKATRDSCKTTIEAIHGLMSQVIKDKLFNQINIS
Data set [5] relates to Lewis lung carcinoma cell line. Nature of the data set: Antitumor T-cell immune response in Lewis lung carcinoma cells xenografted in C57BL/6 mouse model assessed as decrease in CD3+ CD4+ population in CD45+ T cells in tumor at 10 mg/kg, ip administered daily for 10 days by flow cytometry. Type of data set: functional, organism-based. Particulars: time 10.0 day.
Data set [6] concerns the target COP9 signalosome complex subunit 5 (Homo sapiens) (UniProt Q92905). The experiment in a line: Induction of IFN-gamma-induced PD-L1 degradation in human NCI-H1299 cells at 10 uM incubated for 24 hrs by Western blot analysis. Type of data set: cell-based.
Data set [7] has the same target. Nature of the data set: Induction of IFN-gamma-induced PD-L1 degradation in human HCC827 cells at 10 uM incubated for 24 hrs by Western blot analysis. Format: cell-based.
The subject of a further data set is Mus musculus. Nature of the data set: In vivo induction of PD-L1 degradation in […] lung carcinoma cells xenografted in C57BL/6 mouse model at 10 mg/kg, ip administered daily for 10 days by IHC analysis. Type of data set: functional, organism-based. The conditions noted are these: time 10.0 day.
Data set [8] in a line: Toxicity in C57BL/6 mouse model xenografted with […] cells assessed as change in serum creatinine level at 10 mg/kg, ip administered daily for 10 days. Type of data set: organism-based. Particulars: in vivo, 240 h, time 10 day.
Data set [9] is described as follows: Toxicity in C57BL/6 mouse model xenografted with […] cells assessed as body weight loss at 10 mg/kg, ip administered daily for 10 days. Format: organism-based. The conditions noted are these: in vivo, 240 h, time 10 day.
In data set [10] the target is COP9 signalosome complex subunit 5 (Homo sapiens) (UniProt Q92905). The experiment in a line: Binding affinity to CSN5 in HEK293T cell lysate by Western blot analysis. Format: subcellular.
Data set [11] has as its system Lewis lung carcinoma cell line. The experiment in a line: Anticancer activity against Lewis lung carcinoma cells xenografted in C57BL/6 mouse model at 10 mg/kg, ip administered daily for 10 days relative to control. Type of data set: functional. The conditions noted are these: 240 h, time 10 day, read-out: TGI.
For a further data set, the system named is NCI-H1299. The experiment in a line: Effect on IFN-gamma-induced PD-L1 mRNA expression in human NCI-H1299 cells at 10 uM by qRT-PCR analysis. Format: functional, cell-based.
A short description of data set [12]: Toxicity in C57BL/6 mouse model xenografted with […] cells assessed as obvious damage in lung at 10 mg/kg, ip administered daily for 10 days by H and E staining based analysis. Type of data set: organism-based. The conditions noted are these: in vivo, 240 h, time 10 day.
For data set [13], the system named is Lewis lung carcinoma cell line. The experiment in a line: Antitumor T-cell immune response in Lewis lung carcinoma cells xenografted in C57BL/6 mouse model assessed as increase in IFN-gamma level in tumor at 10 mg/kg, ip administered daily for 10 days by ELISA. The conditions noted are these: time 10.0 day. Format: functional, organism-based.

As for `COc1cc2c(cc1OC)-c1cc3ccc(OC)c(OCCN)c3c[n+]1CC2.[Cl-]`, the Activity result in [1] was “Non-toxic”; in data set [3], “Non-toxic”; in [4], “Time-dependent-effect”; in [8] it was “Non-toxic”; in [9], “Non-toxic”; in data set [12], “Non-toxic”. The outcome (in data set [2]; in data set [5]; in data set [6]; in data set [7]; with Mus musculus; in [10]) was Active. The outcome in data set [13] was Active. In addition, the inhibition in vivo at 10 mg/kg in data set [11] was 71%. Further, the result with NCI-H1299 was inactive.

Values taken from ChEMBL document CHEMBL6092191, “Advancing Cancer Immunotherapy through Engineering New PD-L1 Degraders: A Comprehensive Study from Small Molecules to PD-L1-Specific Peptide-Drug Conjugates” (J Med Chem, 2024).
